The text below walks through data of patent US7041684B2, “Selective β3 adrenergic agonists” (Eli Lilly and Company, priority 1996, dated 2006).

The structures appear in SMILES notation. Where a name gives a salt, the structure may show the parent alone.

Take `CC(C)(CNC(=O)c1ccc(Oc2ccc(C#N)cc2)cc1)NC[C@H](O)COc1cccc2[nH]c3ccccc3c12` (as salt: HCl): the melting point is 120 to 130 °C (dec.).

Turning to `CCOC(=O)COc1ccc(OCCNC[C@H](O)COc2cccc3[nH]c4ccccc4c23)cc1` (as salt: HCl), the melting point was 57 to 61 °C (dec.).
